Values after ≈ are worked out from the molar mass of the structure shown.
Key:
Cutibacterium acnes [1] = assay: Antibacterial activity against Propionibacterium acnes KCCM 41747 at 1000 uM after 24 hrs by agar well-diffusion method; format: functional; settings: KCCM 41747, 24 h, read-out: DIZ
Staphylococcus aureus [2] = assay: Antibacterial activity against Staphylococcus aureus ATCC 25923 at 1000 uM after 24 hrs by agar well-diffusion method; format: functional; settings: ATCC 25923, 24 h, read-out: DIZ
Streptococcus sobrinus [3] = assay: Antibacterial activity against Streptococcus sobrinus KCCM 11898 at 1000 uM after 24 hrs by agar well-diffusion method; format: functional; settings: KCCM 11898, 24 h, read-out: DIZ
Streptococcus mutans [4] = assay: Antibacterial activity against Streptococcus mutans ATCC 25175 at 1000 uM after 24 hrs by agar well-diffusion method; format: functional; settings: ATCC 25175, 24 h, read-out: DIZ
Salmonella typhi [5] = assay: Antibacterial activity against Salmonella typhi ATCC 422 at 1000 uM after 24 hrs by agar well-diffusion method; format: functional, Salmonella enterica subsp. enterica serovar Typhi; settings: Salmonella enterica, ATCC 422, 24 h; read-out: DIZ
Salmonella typhi [6] = assay: Antibacterial activity against Salmonella typhi ATCC 422 by resazurin based broth microdilution method; format: functional, Salmonella enterica subsp. enterica serovar Typhi; settings: Salmonella enterica
Streptococcus mutans [7] = assay: Antibacterial activity against Streptococcus mutans ATCC 25175 by resazurin based broth microdilution method; format: functional
Cutibacterium acnes [8] = assay: Antibacterial activity against Propionibacterium acnes KCCM 41747 by resazurin based broth microdilution method; format: functional
Streptococcus sobrinus [9] = assay: Antibacterial activity against Streptococcus sobrinus KCCM 11898 by resazurin based broth microdilution method; format: functional
Staphylococcus aureus [10] = assay: Antibacterial activity against Staphylococcus aureus ATCC 25923 by resazurin based broth microdilution method; format: functional
Streptococcus mutans [11] = assay: Antibacterial activity against Streptococcus mutans ATCC 25175 at 500 uM after 24 hrs by agar well-diffusion method; format: functional; settings: ATCC 25175, 24 h, read-out: DIZ
Cutibacterium acnes [12] = assay: Antibacterial activity against Propionibacterium acnes KCCM 41747 at 500 uM after 24 hrs by agar well-diffusion method; format: functional; settings: KCCM 41747, 24 h, read-out: DIZ
Staphylococcus aureus [13] = assay: Antibacterial activity against Staphylococcus aureus ATCC 25923 at 500 uM after 24 hrs by agar well-diffusion method; format: functional; settings: ATCC 25923, 24 h, read-out: DIZ
Salmonella typhi [14] = assay: Antibacterial activity against Salmonella typhi ATCC 422 at 500 uM after 24 hrs by agar well-diffusion method; format: functional, Salmonella enterica subsp. enterica serovar Typhi; settings: Salmonella enterica, ATCC 422, 24 h; read-out: DIZ
Streptococcus sobrinus [15] = assay: Antibacterial activity against Streptococcus sobrinus KCCM 11898 at 500 uM after 24 hrs by agar well-diffusion method; format: functional; settings: KCCM 11898, 24 h, read-out: DIZ

SMILES | zone of inhibition at 1000 µM (Cutibacterium acnes [1]) | zone of inhibition at 1000 µM (Staphylococcus aureus [2]) | zone of inhibition at 1000 µM (Streptococcus sobrinus [3]) | zone of inhibition at 1000 µM (Streptococcus mutans [4]) | zone of inhibition at 1000 µM (Salmonella typhi [5]) | MIC (Salmonella typhi [6]) | MIC (Streptococcus mutans [7]) | MIC (Cutibacterium acnes [8]) | MIC (Streptococcus sobrinus [9]) | MIC (Staphylococcus aureus [10]) | zone of inhibition at 500 µM (Streptococcus mutans [11]) | zone of inhibition at 500 µM (Cutibacterium acnes [12]) | zone of inhibition at 500 µM (Staphylococcus aureus [13]) | zone of inhibition at 500 µM (Salmonella typhi [14]) | zone of inhibition at 500 µM (Streptococcus sobrinus [15])
COc1cc(C)c2c(c1C(C)C)C=C(C)C(=O)C2=O | 13.2 mm | 15.3 mm | 10.7 mm | 11.3 mm | 10.7 mm | – | – | – | – | – | – | – | – | – | –
C=CCOc1cc(C)c2c(c1C(C)C)C=C(C)C(=O)C2=O | 14.8 mm | 23 mm | 16 mm | 17.3 mm | 14.5 mm | 62.5 µM (≈ 17.8 µg/mL) | 31.2 µM (≈ 8.89 µg/mL) | 31.2 µM (≈ 8.89 µg/mL) | 15.6 µM (≈ 4.44 µg/mL) | 0.975 µM (≈ 0.277 µg/mL) | – | – | – | – | –
CCCCCCCC(=O)Oc1cc(C)c2c(c1C(C)C)C=C(C)C(=O)C2=O | 11.5 mm | 8.7 mm | 11.3 mm | 10.3 mm | 9.6 mm | – | – | – | – | – | – | – | – | – | –
CC1=C2OCC(C)c3c(O)cc(C)c(c32)C(=O)C1=O (stereo not given) | 11.9 mm | 12 mm | 8.3 mm | 10.3 mm | 11 mm | 31.2 µM (≈ 8.07 µg/mL) | 62.5 µM (≈ 16.1 µg/mL) | 125 µM (≈ 32.3 µg/mL) | 62.5 µM (≈ 16.1 µg/mL) | 250 µM (≈ 64.6 µg/mL) | – | – | – | – | –
CCCC(=O)Oc1cc(C)c2c(c1C(C)C)C=C(C)C(=O)C2=O | 13 mm | 18 mm | 13.7 mm | 12.7 mm | 10.7 mm | – | – | – | – | 62.5 µM (≈ 19.6 µg/mL) | – | – | – | – | –
CCOc1cc(C)c2c(c1C(C)C)C=C(C)C(=O)C2=O | 13.3 mm | 16 mm | 14 mm | 18 mm | 10.8 mm | – | 62.5 µM (≈ 17 µg/mL) | 62.5 µM (≈ 17 µg/mL) | 31.2 µM (≈ 8.51 µg/mL) | – | – | – | – | – | –
CC(C)=CCOc1cc(C)c2c(c1C(C)C)C=C(C)C(=O)C2=O | 15 mm | 23.7 mm | 16.7 mm | 17.7 mm | 16.3 mm | 62.5 µM (≈ 19.5 µg/mL) | 31.2 µM (≈ 9.76 µg/mL) | 31.2 µM (≈ 9.76 µg/mL) | 31.2 µM (≈ 9.76 µg/mL) | 0.975 µM (≈ 0.305 µg/mL) | – | – | – | – | –
CCCCCCCCOc1cc(C)c2c(c1C(C)C)C=C(C)C(=O)C2=O | 14.6 mm | 20 mm | 15.7 mm | 20 mm | 16.3 mm | 31.2 µM (≈ 11.1 µg/mL) | 31.2 µM (≈ 11.1 µg/mL) | 31.2 µM (≈ 11.1 µg/mL) | 31.2 µM (≈ 11.1 µg/mL) | 15.6 µM (≈ 5.56 µg/mL) | – | – | – | – | –
CCCCCCCCCCCCOc1cc(C)c2c(c1C(C)C)C=C(C)C(=O)C2=O | 11.9 mm | 9 mm | 8 mm | 9 mm | 11.5 mm | – | – | – | – | – | – | – | – | – | –
CCCCCCCCCC(=O)Oc1cc(C)c2c(c1C(C)C)C=C(C)C(=O)C2=O | 11.4 mm | 7 mm | 10.7 mm | 9.7 mm | 8.2 mm | – | – | – | – | – | – | – | – | – | –
CCCCCC(=O)Oc1cc(C)c2c(c1C(C)C)C=C(C)C(=O)C2=O | 11.6 mm | 14.7 mm | 12.7 mm | 12 mm | 9.7 mm | – | – | – | – | – | – | – | – | – | –
CC(C)=CCC/C(C)=C/COc1cc(C)c2c(c1C(C)C)C=C(C)C(=O)C2=O | 11.1 mm | 14 mm | 11.5 mm | 16.2 mm | 14 mm | 125 µM (≈ 47.6 µg/mL) | – | – | – | – | – | – | – | – | –
CCCCOc1cc(C)c2c(c1C(C)C)C=C(C)C(=O)C2=O | 13.6 mm | 18 mm | 15.5 mm | 18.3 mm | 12 mm | 3.9 µM (≈ 1.17 µg/mL) | 7.8 µM (≈ 2.34 µg/mL) | 15.6 µM (≈ 4.69 µg/mL) | 125 µM (≈ 37.5 µg/mL) | 15.6 µM (≈ 4.69 µg/mL) | – | – | – | – | –
CC1=Cc2c(C(C)C)ccc(C)c2C(=O)C1=O | 13.3 mm | 12.7 mm | 9.3 mm | 13.7 mm | 11.3 mm | 31.2 µM (≈ 7.13 µg/mL) | 15.6 µM (≈ 3.56 µg/mL) | 62.5 µM (≈ 14.3 µg/mL) | 31.2 µM (≈ 7.13 µg/mL) | 62.5 µM (≈ 14.3 µg/mL) | – | – | – | – | –
O=C(N[C@H](CO)[C@H](O)c1ccc([N+](=O)[O-])cc1)C(Cl)Cl [CHLORAMPHENICOL] | – | – | – | – | – | – | – | – | – | – | 25.7 mm | 30 mm | 20.7 mm | 24.8 mm | 25.3 mm
CC1=C2OCC(C)c3ccc(C)c(c32)C(=O)C1=O (stereo not given) [MANSONONE E] | 13.5 mm | 19.7 mm | 16.7 mm | 20.3 mm | 11.6 mm | 15.6 µM (≈ 3.78 µg/mL) | 3.9 µM (≈ 0.945 µg/mL) | 31.2 µM (≈ 7.57 µg/mL) | 15.6 µM (≈ 3.78 µg/mL) | 31.2 µM (≈ 7.57 µg/mL) | – | – | – | – | –
CC1=Cc2c(c(C)cc(O)c2C(C)C)C(=O)C1=O [MANSONONE G] | 15.6 mm | 13.7 mm | 10 mm | 14.7 mm | 11.9 mm | 15.6 µM (≈ 3.81 µg/mL) | 31.2 µM (≈ 7.63 µg/mL) | 31.2 µM (≈ 7.63 µg/mL) | 31.2 µM (≈ 7.63 µg/mL) | 62.5 µM (≈ 15.3 µg/mL) | – | – | – | – | –
